Literature values as cited in patent US6949259B1, “Solid preparations for oral use” (Kyorin Pharmaceutical Co., Ltd., priority 1999, dated 2005).

Key:
[1] = Nomura M. et al, Bioorg. Med. Chem. Lett., 9 (1999), 533-538
[2] = Nomura M. et al, Bioorg. Med. Chem. Lett., 9 (1999), 533-538; remark: listed apart in the source

COc1ccc(CC2SC(=O)NC2=O)cc1C(=O)NCc1ccc(C(F)(F)F)cc1 (racemic) [KRP-297, (±)-5-[(2,4-dioxothiazolidine-5-yl)methyl]-2-methoxy-N-[[4-(trifluoromethyl)phenyl]methyl]-benzamide]
blood glucose-lowering action [1]: potent blood glucose-lowering action
lipid-lowering action [2]: lipid-lowering action
